Where “and” joins values, the source holds several entries; their conditions need not be identical. Identical values can stand only once.
Columns and labels:
Type in all cases: physicochemical
[1] = Visual assessment of suspension formulations by time lapse photography 10 and 30 seconds after agitation; design: key: + = visually acceptable formulation; − = visually unacceptable formulation; ? = border line acceptable formulation
Experimental: (§1) For each of the micronized drug substances A-G set forth below, formulations were prepared at drug concentrations of 0.017 percent, 0.039 percent, 0.083 percent, 0.41 percent, and 1.6 percent by weight based on the total weight of the formulation (corresponding to 0.20 mg/mL, 0.50 mg/mL, 1.0 mg/mL, 5.0 mg/Ml, and 20 mg/mL, respectively). The formulations were prepared by dispersing micronized drug in HFC 134a in a sealed 15 mL clear PET vial using ultrasonic energy.
Using time lapse photography 10 and 30 seconds after agitation the formulations were assessed as follows: […]
The formulations were photographed using time lapse photography at 10 and 30 seconds post agitation and were assessed as follows: […]

[2] = Visual observation of suspension aerosol formulations (dispersion, flocculation, settling, creaming, suitability for metered dose inhaler); conditions: for homogeneity of suspension: Example 1: 1.6 percent in HFC 134a
Experimental: as §1
For each propellant mix the range of drug concentrations used in Example 1 was used.
BDP formulations were prepared at 0.070 percent by weight (1.0 mg/mL) in HFC 227 and at 0.38 percent by weight (5.0 mg/mL) in a 1:1 mixture of HFC 227 and HFC 134a.
Formulations of salmeterol free base at 0.02 percent by weight and 0.05 percent by weight were prepared in HFC 134a and in HFC 227 by placing the drug and 5 mL of glass beads into a 15 mL glass vial, crimping on a continuous valve, and adding the appropriate amount of propellant. The formulations were shaken on a paint shaker for 10 min in order to disperse the drug.
The vial was then shaken on a paint shaker, chilled, and the contents transferred to 10 mL vials fitted with the metered dose valve. […] Valve delivery was measured through the life of the formulations.

[3] = Respirable fraction (Anderson Cascade Impactor)
Experimental: In this assay the respirable fraction (the percent by weight of particles having an aerodynamic particle size of less than 4.7 microns) of the aerosol suspension is determined using an Anderson Cascade Impactor (available from Anderson Sampler Inc,; Atlanta, Ga.).
The aerosol vial to be tested is primed five times. The valve and valve stem are then cleaned with methanol and dried with compressed air. The aerosol vial and a clean, dry actuator are coupled to the glass throat attached to the top of the impactor using an appropriate firing adaptor. The calibrated vacuum pump (28.3 L/min) attached to the cascade impactor is turned on. A total of 20 sprays is delivered into the cascade impactor by repeatedly shaking the vial, seating it in the actuator and immediately delivering a single spray. The time between sprays is approximately 30 seconds. The cascade impactor is disassembled and each component is rinsed separately with diluent (55 parts methanol mixed with 45 parts of 0.1 percent aqueous phosphoric acid, v/v). Each solution is analyzed for pirbuterol acetate content using high performance liquid chromatography. The respirable fraction is calculated as follows:
% respirable=drug recovered from plates 3-7×100 total drug−drug recovered from recovered actuator and valve
In Examples 13-14 below respirable fraction is determined using the test method described above but using a diluent of 45 parts by volume methanol and 55 parts by volume of 0.1 percent aqueous phosphoric acid.

[4] = Example 1: drug concentration 0.017 % in HFC 134a alone
[5] = Example 1: drug concentration 0.039 % in HFC 134a alone
[6] = Example 1: drug concentration 0.083 % in HFC 134a alone
[7] = Example 1: drug concentration 0.41 % in HFC 134a alone
[8] = Example 1: drug concentration 1.63 % in HFC 134a alone
[9] = Example 4: 0.070 percent in HFC 227
[10] = Example 4: 0.38 percent in 1:1 HFC 134a/HFC 227
[11] = Example 5: 0.02 and 0.05 percent by weight in HFC 134a and in HFC 227

Row | Compound | visual assessment of formulation [1, 4] | visual assessment of formulation [1, 5] | visual assessment of formulation [1, 6] | visual assessment of formulation [1, 7] | visual assessment of formulation [1, 8] | homogeneity of suspension [2] | further results
1 | CC(C)(C)NCC(O)c1ccc(O)c(CO)c1 (stereo not drawn) [Albuterol] | + | + | ? | − | + | particularly homogenous suspensions | 
2 | CCC(=O)OCC(=O)[C@@]1(OC(=O)CC)[C@@H](C)C[C@H]2[C@@H]3CCC4=CC(=O)C=C[C@]4(C)[C@@]3(Cl)[C@@H](O)C[C@@]21C [Beclomethasone dipropionate] | + | + | ? | − | + | particularly homogenous suspensions | dispersion [2, 9]: fairly well dispersed; time of flocculation after shaking [2, 9]: about 10 seconds; flocculation [2, 10]: flocculation was rapid; settling or creaming of flocs [2, 10]: the flocs neither settled nor creamed
3 | O=C([O-])c1cc(=O)c2c(OCC(O)COc3cccc4oc(C(=O)[O-])cc(=O)c34)cccc2o1.[Na+].[Na+] [Disodium cromoglycate] | + | + | ? | − | − |  | homogeneity of formulation ([2]; Example 2: 0.015, 0.035 and 0.070 percent by weight in HFC 227, no surfactant): particularly homogenous; flocculation and sedimentation ([2]; Example 2: 0.35 percent and 1.4 percent in HFC 227, no surfactant): more rapid flocculation and sedimentation
4 | OCc1cc(C(O)CNCCCCCCOCCCCc2ccccc2)ccc1O (stereo not drawn) [salmeterol free base, salmeterol] |  |  |  |  |  |  | creaming [2, 11]: cream in both propellants, more so in HFC 227 than in HFC 134a; flocculation [2, 11]: Flocculation was also apparent; suitability for metered dose inhaler [2, 11]: deemed suitable for use in connection with a metered dose inhaler
5 | Albuterol sulfate | + | + | + | − | − |  | homogeneity of formulation ([2]; Comparative Example: CFC propellant mixes A and B (Propellants 11/114/12), no surfactant, 0.20, 0.50 and 1.0 mg/mL): acceptably homogenous; caking of drug on container walls ([2]; Comparative Example: CFC propellant mixes A and B versus HFC 134a counterparts of Example 1): more caking of drug on the walls of the container than their HFC 134a counterparts; flocculation ([2]; Comparative Example: CFC propellant mixes A and B, no surfactant, 5.0 and 20 mg/mL): relatively rapid flocculation; suitability for metered dose inhaler ([2]; Example 15: 0.37 percent albuterol sulfate, 0.10 percent sorbitan trioleate, 9.95 percent ethanol, 89.58 percent HFC 227): deemed to be suitable for use in connection with a metered dose inhaler; respirable fraction (aerodynamic particle size less than 4.7 microns) ([3]; Example 13: 0.4 percent by weight albuterol sulfate in HFC 227, duplicate, two vials): 69.3% and 60.6% and 64.0% and 63.0%; respirable fraction (aerodynamic particle size less than 4.7 microns) ([3]; Example 14: 0.40 percent albuterol sulfate, 0.50 percent oleic acid, 15.0 percent ethanol, HFC 227, duplicate, two vials): 28.0% and 22.0% and 27.1% and 28.8%
6 | Pirbuterol acetate | + | + | ? | ? | + |  | suitability for metered dose inhaler ([2]; Example 9: 0.9 percent by weight pirbuterol acetate in HFC 227): deemed to be suitable for use in connection with a metered dose inhaler; suitability for metered dose inhaler ([2]; Example 10: 0.90 percent pirbuterol acetate, 0.23 percent oleic acid, 10.0 percent ethanol, HFC 227): deemed to be suitable for use in connection with a metered dose inhaler; respirable fraction (aerodynamic particle size less than 4.7 microns) ([3]; Example 11: 0.9 percent by weight pirbuterol acetate in HFC 227, duplicate, two vials): 59.1% and 54.8% and 53.9% and 49.3%; respirable fraction (aerodynamic particle size less than 4.7 microns) ([3]; Example 12: 0.9 percent pirbuterol acetate, 10 percent ethanol, HFC 227, duplicate, two vials): 34.9% and 32.5% and 31.7% and 31.3%; respirable fraction (aerodynamic particle size less than 4.7 microns) ([3]; Example 16: 0.9 percent pirbuterol acetate, 3 percent ethanol, HFC 227, two separate vials): 59.8% and 52.8%; respirable fraction (aerodynamic particle size less than 4.7 microns) ([3]; Example 17: 0.9 percent pirbuterol acetate, 5 percent ethanol, HFC 227, two separate vials): 48.2% and 43.5%

— patent US6743413B1, “Suspension aerosol formulations” (3M Company, priority 1991, dated 2004)
